The subject of the first data set is B cell. Description: Cytotoxicity screening of chemical probes in isolated B cell assay. Data is normalized to DMSO control, the cell viability average of replicates are reported. Reduction of ATP level more than 20% indicate compromised cell health status. Particulars: human, 0.1 µM.
Consider `CN(C)C(=O)Cn1cc(-c2nc([C@@](C)(c3ccc(-c4cnc(N)nc4)cc3)C3CC3)no2)cn1` [BI 665915], for which the “Cell Viability” value is on record as 103.286%.
Consider `O=C(NCc1ncc(C(F)(F)F)cc1Cl)c1ccc2c(c1)C1(CCS(=O)(=O)CC1)[C@H](C1CC1)N2S(=O)(=O)c1ccc(F)cc1` [BAY-784], for which the “Cell Viability” value worked out at 98.8405%.
The same measure, in the same setting: the same measure for `Cc1cc(C)c(-n2ccn3nc(-c4cccnc4)cc23)cc1NC(=O)c1cc(C#N)cc(S(F)(F)(F)(F)F)c1` [BAY-826]: 99.8561%.

The data set is the same for the next values; noted with them: human, 1 µM.
For `CN1CCN(c2ccc(-c3cccc(CN4CCOCC4)c3)cc2NC(=O)c2c[nH]c(=O)cc2C(F)(F)F)CC1`, the “Cell Viability” value is recorded as 99.6552%.
Still for that read-out and setting: the same measure for `Cl.O=C([C@@H](Cc1cccc(C(F)(F)F)c1)NS(=O)(=O)c1cc(F)c2c(c1)CCNC2)N1CCCC1`: 98.8503%.
On the same count and under the same terms, under `Cc1cc(C)cc([C@@H]2c3cc(C)ccc3NC(=O)CN2C(=O)c2ccc(Br)s2)c1` stands 95.4438%; under `Cl.Clc1ccc2nsnc2c1NC1=NCCN1` [TIZANIDINE HYDROCHLORIDE], 103.384%; under `CCN(CCO)CCCOc1ccc2c(Nc3cc(CC(=O)Nc4cccc(F)c4)[nH]n3)ncnc2c1` [DEFOSBARASERTIB], 100.387%.
Still for that read-out and setting: the same measure for `Cc1ccc2nc(CNCCCOc3ccccc3)cc(O)c2c1` [UCSF924]: 96.7712%; for `O=C(O)Cc1ccccc1Nc1c(Cl)cccc1Cl` [DICLOFENAC]: 103.39%.
For `CCOC(=O)Nc1cc(-c2ccc(C)c(NS(C)(=O)=O)c2)nn2c(C)nnc12`, the “Cell Viability” value is 84.5677%.
Same read-out and setting: under `Clc1cccc(-c2nnnn2Cc2cccnc2)c1Cl` stands 97.1983%.
For `C[C@@H]1CN(c2cc(-c3n[nH]c4ccc(OC5(C)CC5)cc34)ncn2)C[C@H](C)O1` [MLi-2], the “Cell Viability” value was 96.3526%.
As for `CC(=O)Nc1c(C(C)=O)c(=O)n(C)c2nc(-c3ccc(Cl)cc3Cl)c(-c3ccc(Cl)cc3)cc12` [NAPHTHYRIDINONE], the “Cell Viability” value was 96.2894%.
Still for that read-out and setting: the same measure for `CC[C@H]1OC(=O)[C@H](C)[C@@H](O[C@H]2C[C@@](C)(OC)[C@@H](O)[C@H](C)O2)[C@H](C)[C@@H](O[C@@H]2O[C@H](C)C[C@H](N(C)C)[C@H]2O)[C@@]2(C)CC(C)=C(O2)[C@H](C)[C@@H](O)[C@]1(C)O`: 98.1033%; for `CC#C[C@@H](CC(=O)O)c1ccc(OCc2cccc(-c3ccc(C(F)(F)F)cc3)c2)cc1`: 93.0276%; for `O=C1CCc2cc(Nc3cc(OC4CCOCC4)c([N+](=O)[O-])cc3Cl)ccc2N1`: 94.8245%.
Turning to `CCC(=O)N1CCOc2c(cc(-c3ccc(OC)c(OC)c3)cc2OCC2CCCN(C)C2)C1` (stereo not drawn), the “Cell Viability” value was determined as 98.9735%.
Still for that read-out and setting: the same measure for `CCN(C(=O)CO)[C@H]1CN(/C(=N\C#N)Nc2cccc(OC(F)F)c2)N=C1c1ccc(Cl)c(Cl)c1`: 100.495%.
Still for that read-out and setting: the same measure for `O=C(NC[C@@H]1[C@H]2CN(C(=O)OCc3cc(C(F)(F)F)cc(C(F)(F)F)c3)C[C@@H]12)c1ccc2[nH]nnc2c1` [BI 2545]: 100.102%; for `Cn1cc(CCn2cnc(-c3cnn(C)c3)c2-c2ccc(C#N)cc2)cn1`: 99.8514%; for `C[C@H]1CCCN1Cc1nc2cc(NC(=O)c3ccc4cnccc4c3)ccc2[nH]1`: 90.4338%.
Still for that read-out and setting: under `Cc1cc(=O)n(C)c2cc(N3C(=O)CC[C@H](NS(=O)(=O)CC(C)C)[C@H]3c3ccc(Cl)cc3)ccc12` stands 97.6321%.
With `COc1cc(Nc2ccnc3ccc(Br)cc23)cc(OC)c1OC`, the “Cell Viability” value stood at 95.869%.
The same measure, in the same setting: under `Cc1nc(N2CC[C@H](O)C2)ncc1-c1cc(C(F)(F)F)cc2[nH]ncc12` stands 99.9461%.
On the same count and under the same terms, under `CCc1nc2c(C)cc(C)nc2[nH]1` stands 100.659%; under `O=C1c2ccc(Nc3ccc(F)cc3F)cc2CCc2ccc(OC[C@H](O)CO)cc21` [Skepinone-L], 96.8594%.
Still for that read-out and setting: under `Cc1c(Nc2ccc(S(=O)(=O)N3CCN(C)CC3)cc2F)nc2ccc(-c3cnn(C4CC4)c3)cn2c1=O` stands 96.0793%; under `COc1cc(OC)cc(-c2noc(N3CCN(C)C4(CCN(c5ccnc(C)c5)CC4)C3)n2)c1`, 97.1072%; under `CO[C@@H](C)c1c(Nc2ccc([C@H](N(C)C(=O)C3CCS(=O)(=O)CC3)C(F)(F)F)cc2)cnc2cc(Cl)nn12` [NVS-MALT1], 90.4509%.
As to `COc1ccc2c(c1)O[C@@H](c1ccc(OC)c(OC)c1)C[C@H]2NC(=O)C1(c2ccc3c(c2)OC(F)(F)O3)CC1` [A-1596586], the “Cell Viability” value amounted to 101.385%.
The same measure, in the same setting: the same measure for `COC(c1ccccc1)(c1ccccc1)[C@H](Oc1nc(C)cc(C)n1)C(=O)O` [AMBRISENTAN]: 104.904%.
Consider `CCC(=O)N[C@H]1CC[C@@H](C(=O)N(C)c2ccc(-c3nc4ccccc4o3)cc2)C1` [BI 99179], for which the “Cell Viability” value is 102.234%.
The same measure, in the same setting: the same measure for `Cc1ccccc1Oc1cc(-n2c(=O)cc(C(F)(F)F)[nH]c2=O)c2ccccc2c1Cl` [BAY-069]: 101.552%.
For `CCCc1cc(C)[nH]c(=O)c1CNC(=O)c1cc(-c2ccc(N3CCN(C(C)C)CC3)nc2)cc2c1cnn2C(C)C`, the “Cell Viability” value is recorded as 96.021%.
In the case of `C[C@@H]1CN(Cc2ccc(F)cc2)CCN1C(=O)COc1ccc(Cl)cc1NC(N)=O` [BX 471 FREE BASE], the “Cell Viability” value came to 91.1693%.
Same read-out and setting: under `Cc1c(C(=O)NN2CCCCC2)nn(-c2ccc(Cl)cc2Cl)c1-c1ccc(Cl)cc1` [RIMONABANT] stands 99.45%; under `NS(=O)(=O)c1cc(NC(=O)Cc2ccccc2)ccc1Oc1cccc(Cl)c1` [BAY-1797], 95.6935%.

The values above are taken from ChEMBL document CHEMBL5724562, “Toxicity screen in isolated B cell assay results for EUbOPEN Chemogenomics Library” (2024).
